{"source": "patent US6706663B2", "about": "“Herbicidal 3-heterocyclic substituted benzisothiazole and benzisoxazole compounds” (Wyeth, priority 2000, dated 2004)", "key": {"[1]": {"tested_on": "SAGPY (Sagittaria pygmaea)", "assay": "Flooded paddy, postemergence weed control", "type": "in vivo, L.", "conditions": "postemergence weeds, rated 3-4 weeks after treatment", "method_in_brief": "(§1)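 Weeds 3–5 cm tall and rice at 1.5–2.5 leaf stage in containers flooded 1.5–3 cm deep; compounds in 50/50 v/v aqueous/acetone injected into flood water at about 0.0320–0.2500 kg/ha. Greenhouse-held; visual 0–9 rating versus untreated control after three to four weeks.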"}, "[2]": {"tested_on": "TRZAWR (Wheat, Winter, cv Riband)", "assay": "Preemergence herbicidal evaluation", "type": "in vivo, Triticum aestivum", "conditions": "preemergence, rated 4-5 weeks after treatment", "method_in_brief": "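Seeds planted in potting soil cups and sprayed preemergence with aqueous acetone compound solution. Greenhouse-grown; rated 4–5 weeks after treatment on a 0-9 visual scale (stand, vigor, malformation, size, chlorosis, appearance) versus control.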"}, "[3]": {"tested_on": "ZEAMX (Corn, Field)", "assay": "Postemergence herbicidal evaluation", "type": "in vivo, Zea mays, L.", "method_in_brief": "(§2)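 Seedlings grown about two weeks in flats, sprayed, then kept under standard greenhouse care. Rated visually 4–5 weeks after treatment on a 0–9 scale (stand, vigour, malformation, size, chlorosis, overall appearance) relative to untreated control; repeat tests averaged.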"}, "[4]": {"tested_on": "GLXMAW (Soybean, Williams)", "assay": "Preemergence herbicidal evaluation", "type": "in vivo, Glycine max, (L.) Merr. cv Williams", "conditions": "preemergence, rated 4-5 weeks after treatment"}, "[5]": {"tested_on": "ABUTH (Abutilon theophrasti)", "assay": "Preemergence herbicidal evaluation", "type": "in vivo, Medic.", "conditions": "preemergence, rated 4-5 weeks after treatment"}, "[6]": {"tested_on": "ZEAMX (Corn, Field)", "assay": "Preemergence herbicidal evaluation", "type": "in vivo, Zea mays, L.", "conditions": "preemergence, rated 4-5 weeks after treatment"}, "[7]": {"tested_on": "GLXMAW (Soybean, Williams)", "assay": "Postemergence herbicidal evaluation", "type": "in vivo, Glycine max, (L.) Merr. cv Williams", "method_in_brief": "as §2"}, "[8]": {"tested_on": "ORYSAT (Rice, Tebonnet)", "assay": "Flooded paddy, post-transplant rice tolerance", "type": "in vivo, Oryza sativa, (L.) Tebonnet", "conditions": "flooded paddy, post-transplant rice, rated 3-4 weeks after treatment, 0-9 rating scale", "method_in_brief": "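Two ten-day-old Tebonnet rice seedlings transplanted into silt loam, then flooded with water held at 1.5–3 cm above soil; herbicide applied post-transplant. Plants kept in greenhouse and rated visually 0–9 versus untreated control for stand, vigor, malformation, size and chlorosis.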"}, "[9]": {"tested_on": "ECHORC (Echinochloa oryzoides)", "assay": "Flooded paddy, postemergence weed control", "type": "in vivo, Echinochloa oryzoides (Ard.) Fritsch.", "conditions": "postemergence weeds, rated 3-4 weeks after treatment", "method_in_brief": "as §1"}, "[10]": {"tested_on": "ORYSAT (Rice, Tebonnet)", "assay": "Flooded paddy, post-transplant and postemergence rice tolerance", "type": "in vivo, Oryza sativa, (L.) Tebonnet", "conditions": "post-transplant rice, rated 3-4 weeks after treatment", "method_in_brief": "as §1"}, "[11]": {"tested_on": "CYPIR (Cyperus iria)", "assay": "Flooded paddy, postemergence weed control", "type": "in vivo", "conditions": "postemergence weeds, rated 3-4 weeks after treatment", "method_in_brief": "as §1"}, "[12]": {"tested_on": "IPOHE (Ipomoea hederacea)", "assay": "Preemergence herbicidal evaluation", "type": "in vivo, (L.) Jacq.", "conditions": "preemergence, rated 4-5 weeks after treatment"}, "[13]": {"tested_on": "CYPSE (Cyperus serotinus)", "assay": "Flooded paddy, postemergence weed control", "type": "in vivo, Rottb.", "conditions": "postemergence weeds, rated 3-4 weeks after treatment", "method_in_brief": "as §1"}, "[14]": {"tested_on": "ECHCG (Echinochloa crus-galli)", "assay": "Postemergence herbicidal evaluation", "type": "in vivo, (L.) Beau", "method_in_brief": "as §2"}, "[15]": {"tested_on": "ECHORC (Echinochloa oryzoides)", "assay": "Flooded paddy, preemergence weed control", "type": "in vivo, Echinochloa oryzoides (Ard.) Fritsch.", "conditions": "rated 3-4 weeks after treatment, 0-9 rating scale", "method_in_brief": "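Visual 0–9 ratings versus controls scored stand, vigor, malformation, size, chlorosis and overall appearance. Plants grew from seeds or propagating organs sown 0.5 cm deep in silt loam, with water held 1.5–3 cm above the soil for the whole test under greenhouse care.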"}, "[16]": {"tested_on": "MOOVA (Monochoria vaginalis)", "assay": "Flooded paddy, postemergence weed control", "type": "in vivo, Presl.", "conditions": "postemergence weeds, rated 3-4 weeks after treatment", "method_in_brief": "as §1"}}, "data": [{"smiles": "COC(=O)COc1ccsc1-c1nsc2ccc(-n3c(=O)cc(C(F)(F)F)n(C)c3=O)cc12", "note": "[Compound 22, Methyl [(2-[5-[3,6-dihydro-3-methyl-2,6-dioxo-4-(trifluoromethyl)-1(2H)-pyrimidinyl]-1,2-benzisothiazol-3-yl]-3-thienyl]oxy]acetate]", "values": [{"measurement": "herbicide rating (0-9) SAGPY", "setting": "[1]; 0.0320 kg/ha into flood water", "result": 0.0}, {"measurement": "herbicide rating (0-9) SAGPY", "setting": "[1]; 0.0620 kg/ha into flood water", "result": 0.0}, {"measurement": "herbicide rating (0-9) SAGPY", "setting": "[1]; 0.1250 kg/ha into flood water", "result": 0.0}, {"measurement": "TRZAWR preemergence herbicidal rating", "setting": "[2]; Rate 0.0620 kg/ha", "result": 0.0}, {"measurement": "TRZAWR preemergence herbicidal rating", "setting": "[2]; Rate 0.1250 kg/ha", "result": 0.0}, {"measurement": "TRZAWR preemergence herbicidal rating", "setting": "[2]; Rate 0.2500 kg/ha", "result": 0.0}, {"measurement": "Postemergence herbicidal rating, ZEAMX", "setting": "[3]; rate 0.0320 kg/ha", "result": 4.5}, {"measurement": "Postemergence herbicidal rating, ZEAMX", "setting": "[3]; rate 0.0620 kg/ha", "result": 6.0}, {"measurement": "Postemergence herbicidal rating, ZEAMX", "setting": "[3]; rate 0.1250 kg/ha", "result": 7.0}, {"measurement": "GLXMAW preemergence herbicidal rating", "setting": "[4]; Rate 0.0620 kg/ha", "result": 0.0}, {"measurement": "GLXMAW preemergence herbicidal rating", "setting": "[4]; Rate 0.1250 kg/ha", "result": 0.0}, {"measurement": "GLXMAW preemergence herbicidal rating", "setting": "[4]; Rate 0.2500 kg/ha", "result": 0.0}, {"measurement": "ABUTH preemergence herbicidal rating", "setting": "[5]; Rate 0.0620 kg/ha", "result": 1.0}, {"measurement": "ABUTH preemergence herbicidal rating", "setting": "[5]; Rate 0.1250 kg/ha", "result": 4.0}, {"measurement": "ABUTH preemergence herbicidal rating", "setting": "[5]; Rate 0.2500 kg/ha", "result": 5.0}, {"measurement": "ZEAMX preemergence herbicidal rating", "setting": "[6]; Rate 0.0620 kg/ha", "result": 0.0}, {"measurement": "ZEAMX preemergence herbicidal rating", "setting": "[6]; Rate 0.1250 kg/ha", "result": 0.0}, {"measurement": "ZEAMX preemergence herbicidal rating", "setting": "[6]; Rate 0.2500 kg/ha", "result": 1.0}, {"measurement": "Postemergence herbicidal rating, GLXMAW", "setting": "[7]; rate 0.0320 kg/ha", "result": 5.5}, {"measurement": "Postemergence herbicidal rating, GLXMAW", "setting": "[7]; rate 0.0620 kg/ha", "result": 5.5}, {"measurement": "Postemergence herbicidal rating, GLXMAW", "setting": "[7]; rate 0.1250 kg/ha", "result": 6.5}, {"measurement": "herbicidal rating, ORYSAT (rice tolerance)", "setting": "[8]; rate 0.0080 kg/ha", "result": 0.0}, {"measurement": "herbicidal rating, ORYSAT (rice tolerance)", "setting": "[8]; rate 0.0320 kg/ha", "result": 2.0}, {"measurement": "herbicidal rating, ORYSAT (rice tolerance)", "setting": "[8]; rate 0.1250 kg/ha", "result": 2.5}, {"measurement": "herbicide rating (0-9) ECHORC", "setting": "[9]; 0.0320 kg/ha into flood water", "result": 0.0}, {"measurement": "herbicide rating (0-9) ECHORC", "setting": "[9]; 0.0620 kg/ha into flood water", "result": 0.0}, {"measurement": "herbicide rating (0-9) ECHORC", "setting": "[9]; 0.1250 kg/ha into flood water", "result": 0.0}, {"measurement": "herbicide rating (0-9) ORYSAT (rice tolerance)", "setting": "[10]; 0.0320 kg/ha into flood water", "result": 0.0}, {"measurement": "herbicide rating (0-9) ORYSAT (rice tolerance)", "setting": "[10]; 0.0620 kg/ha into flood water", "result": 0.0}, {"measurement": "herbicide rating (0-9) ORYSAT (rice tolerance)", "setting": "[10]; 0.1250 kg/ha into flood water", "result": 0.0}, {"measurement": "herbicide rating (0-9) CYPIR", "setting": "[11]; 0.0320 kg/ha into flood water", "result": 0.0}, {"measurement": "herbicide rating (0-9) CYPIR", "setting": "[11]; 0.0620 kg/ha into flood water", "result": 0.0}, {"measurement": "herbicide rating (0-9) CYPIR", "setting": "[11]; 0.1250 kg/ha into flood water", "result": 0.0}, {"measurement": "IPOHE preemergence herbicidal rating", "setting": "[12]; Rate 0.0620 kg/ha", "result": 0.0}, {"measurement": "IPOHE preemergence herbicidal rating", "setting": "[12]; Rate 0.1250 kg/ha", "result": 0.0}, {"measurement": "IPOHE preemergence herbicidal rating", "setting": "[12]; Rate 0.2500 kg/ha", "result": 0.0}, {"measurement": "herbicide rating (0-9) CYPSE", "setting": "[13]; 0.0320 kg/ha into flood water", "result": 0.0}, {"measurement": "herbicide rating (0-9) CYPSE", "setting": "[13]; 0.0620 kg/ha into flood water", "result": 0.0}, {"measurement": "herbicide rating (0-9) CYPSE", "setting": "[13]; 0.1250 kg/ha into flood water", "result": 0.0}, {"measurement": "Postemergence herbicidal rating, ECHCG", "setting": "[14]; rate 0.0320 kg/ha", "result": 0.0}, {"measurement": "Postemergence herbicidal rating, ECHCG", "setting": "[14]; rate 0.0620 kg/ha", "result": 2.0}, {"measurement": "Postemergence herbicidal rating, ECHCG", "setting": "[14]; rate 0.1250 kg/ha", "result": 6.0}, {"measurement": "herbicidal rating, ECHORC", "setting": "[15]; rate 0.0080 kg/ha", "result": 0.0}, {"measurement": "herbicidal rating, ECHORC", "setting": "[15]; rate 0.0320 kg/ha", "result": 0.0}, {"measurement": "herbicidal rating, ECHORC", "setting": "[15]; rate 0.1250 kg/ha", "result": 5.0}, {"measurement": "herbicide rating (0-9) MOOVA", "setting": "[16]; 0.0320 kg/ha into flood water", "result": 0.0}, {"measurement": "herbicide rating (0-9) MOOVA", "setting": "[16]; 0.0620 kg/ha into flood water", "result": 0.0}, {"measurement": "herbicide rating (0-9) MOOVA", "setting": "[16]; 0.1250 kg/ha into flood water", "result": 0.0}]}]}
